Assay results taken from patent US20240382494A1, “THERAPEUTIC COMPOUNDS” (priority 2023, published 2024).

Assays:
[1] = Cytotoxicity assay in Vero E6 cells (neutral red uptake); format: cell-based; settings: African green monkey; Vero E6 cells, 2 days at 37° C., neutral red uptake; read-out: Vero CC50
Procedure: Briefly, 80.000 cells/ml of the tested cell lines were dispensed into 96-well cell culture plates at 100 μl per well Twenty-four hours later, the growth medium was removed and washed with 150 μl of PBS buffer. Two hundred microliters of fresh serum-free medium containing serial diluted compounds was added to each well. After incubating for 2 days at 37° C., the medium was removed and replaced with 100 μl of DMEM medium containing neutral red (40 μg/ml) and incubated for 2 to 4 hours at 37° C. The amount of neutral red taken up was determined by measuring the absorbance at 540 nm using a Multiskan FC Microplate Photometer (Thermo Fisher Scientific) The CC50 values were calculated from best-fit dose-response curves with variable slope in Prism 8.

SARS-CoV-2 PLpro = SARS-CoV-2 PLpro (Severe acute respiratory syndrome coronavirus 2, UniProt P0DTD1); experiment: FRET-based PLpro enzymatic assay; format: biochemical; settings: 200 nM PLpro, 10 μM FRET substrate, 30 min preincubation at 30° C.; read-out: IC50
Procedure: The SARS-CoV-2 PL^pro enzymatic assays were carried out as follows. The assay was assembled in 96-well plates with 100 μl of 200 nM PL^Pro protein in PL^Pro reaction buffer [50 mM Hepes (pH 7.5), 0.01% Triton X-100, and 5 mM DTT]. Then, 1 μl of testing compound at various concentrations was added to each well and incubated at 30° C. for 30 minutes. The enzymatic reaction was initiated by adding 1 μl of 1 mM FRET substrate (the final substrate concentration is 10 μM). The reaction was monitored in a Cytation 5 image reader with filters for excitation at 360/40 nm and emission at 460/40 nm at 30° C. for 1 hour. The initial velocity of the enzymatic reaction with and without testing compounds was calculated by linear regression for the first 15 minutes of the kinetic progress curve. The IC50 values were calculated by plotting the initial velocity against various concentrations of testing compounds with a dose-response function in Prism 8 software.

Row | SMILES | CC50 at 2 days [1] [µM] | IC50 (SARS-CoV-2 PLpro) [µM]
1 | Cc1ccc(OCCN(C)C)cc1C(=O)N[C@H](C)c1cc(OCc2c(F)c(F)c(F)c(F)c2F)nc2ccccc12 [Example 58, (R)-5-(2-(dimethylamino)ethoxy)-2-methyl-N-(1-(2-((perfluorophenyl)methoxy)quinolin-4-yl)ethyl)benzamide] | > 50 | > 5
2 | Cc1ccc(NC2(C)CN(C)C2)cc1C(=O)N[C@H](C)c1cc(-c2cnn(C)c2)nc2ccccc12 [Example 94, (R)-5-((1,3-dimethylazetidin-3-yl)amino)-2-methyl-N-(1-(2-(1-methyl-1H-pyrazol-4-yl)quinolin-4-yl)ethyl)benzamide] | 154 | 1 to 5
3 | Cc1ccc(OCCN(C)C)cc1C(=O)N[C@H](C)c1cc(-c2cnn(CC(=O)O)c2)nc2ccccc12 [Example 53, (R)-2-(4-(4-(1-(5-(2-(dimethylamino)ethoxy)-2-methylbenzamido)ethyl)quinolin-2-yl)-1H-pyrazol-1-yl)acetic acid] | > 250 | < 0.5
4 | CCn1ccc(-c2cc([C@@H](C)NC(=O)c3cc(N4CCN(C)[C@H](C)C4)ccc3C)c3ccccc3n2)n1 [Example 104, 5-((R)-3,4-dimethylpiperazin-1-yl)-N—((R)-1-(2-(1-ethyl-1H-pyrazol-3-yl)quinolin-4-yl)ethyl)-2-methylbenzamide] | 30.5 ± 2.21 | < 0.5
5 | Cc1ccc(OCCN(C)C)cc1C(=O)N[C@H](C)c1cc(-c2cccc3[nH]ncc23)nc2ccccc12 [Example 50, (R)—N-(1-(2-(1H-indazol-4-yl)quinolin-4-yl)ethyl)-5-(2-(dimethylamino)ethoxy)-2-methylbenzamide] | 59.5 ± 25.4 | < 0.5
6 | Cc1ccc(OC[C@@H]2CCN2C)cc1C(=O)NC1(c2cc(-c3cnn(C)c3)nc3ccccc23)CC1 [Example 115, (S)-2-methyl-N-(1-(2-(1-methyl-1H-pyrazol-4-yl)quinolin-4-yl)cyclopropyl)-5-((1-methylazetidin-2-yl)methoxy)benzamide] | 127 ± 7.89 | < 0.5
7 | Cc1ccc(N2CCN(C)C3(CC3)C2)cc1C(=O)N[C@H](C)c1cc(-c2cnn(C)c2)nc2ccccc12 [Example 80, (R)-2-methyl-N-(1-(2-(1-methyl-1H-pyrazol-4-yl)quinolin-4-yl)ethyl)-5-(4-methyl-4,7-diazaspiro[2.5]octan-7-yl)benzamide] | 49.7 ± 4.65 | < 0.5
8 | Cc1ccc(OCCN(C)C)cc1C(=O)N[C@H](C)c1cc(-c2cncs2)nc2ccccc12 [Example 5, (R)-5-(2-(dimethylamino)ethoxy)-2-methyl-N-(1-(2-(thiazol-5-yl)quinolin-4-yl)ethyl)benzamide] | 44.7 ± 11.7 | < 0.5
9 | Cc1ccc(N2CCN(C)[C@H](C)C2)cc1C(=O)N[C@H](C)c1cc(-c2ccn(C)n2)nc2ccccc12 [Example 99, 5-((R)-3,4-dimethylpiperazin-1-yl)-2-methyl-N—((R)-1-(2-(1-methyl-1H-pyrazol-3-yl)quinolin-4-yl)ethyl)benzamide] | 24.3 ± 2.62 | < 0.5
10 | Cc1ccc(OCCN(C)C)cc1C(=O)N[C@H](C)c1cc(-c2cccs2)nc2ccccc12 [Example 1, (R)-5-(2-(dimethylamino)ethoxy)-2-methyl-N-(1-(2-(thiophen-2-yl)quinolin-4-yl)ethyl)benzamide] | 12.2 ± 0.85 | < 0.5
11 | Cc1ccc(OC[C@@H]2C[C@@H](F)CN2C)cc1C(=O)N[C@H](C)c1cc(-c2cnn(C)c2)nc2ccccc12 [Example 85, 5-(((2S,4R)-4-fluoro-1-methylpyrrolidin-2-yl)methoxy)-2-methyl-N—((R)-1-(2-(1-methyl-1H-pyrazol-4-yl)quinolin-4-yl)ethyl)benzamide] | 33.9 ± 3.74 | < 0.5
12 | Cc1ccc(OCCN(C)C)cc1C(=O)N[C@@H](C)c1cc(-c2ccnn2C)nc2ccccc12 [Example 21, (S)-5-(2-(dimethylamino)ethoxy)-2-methyl-N-(1-(2-(1-methyl-1H-pyrazol-5-yl)quinolin-4-yl)ethyl)benzamide] | 64.7 ± 8.94 | 0.5 to 1
13 | Cc1ccc(OC[C@@H]2CCCN2C)cc1C(=O)N[C@H](C)c1cc(-c2cnn(C)c2)nc2ccccc12 [Example 84, 2-methyl-N—((R)-1-(2-(1-methyl-1H-pyrazol-4-yl)quinolin-4-yl)ethyl)-5-(((S)-1-methylpyrrolidin-2-yl)methoxy)benzamide] | 103 ± 24.4 | < 0.5
14 | Cc1ccc(N2CCN(C)C3(CC3)C2)cc1C(=O)N[C@H](C)c1cc(-c2ccn(C)n2)nc2ccccc12 [Example 101, (R)-2-methyl-N-(1-(2-(1-methyl-1H-pyrazol-3-yl)quinolin-4-yl)ethyl)-5-(4-methyl-4,7-diazaspiro[2.5]octan-7-yl)benzamide] | 40.8 ± 4.27 | 0.5 to 1
15 | Cc1ccc(OCCN(C)C)cc1C(=O)N[C@H](C)c1cc(-c2ccc(CN3CCCC3)s2)nc2ccccc12 [Example 51, (R)-5-(2-(dimethylamino)ethoxy)-2-methyl-N-(1-(2-(5-(pyrrolidin-1-ylmethyl)thiophen-2-yl)quinolin-4-yl)ethyl)benzamide] | 27.1 ± 14 | < 0.5
16 | Cc1ccc(OCCN(C)C)cc1C(=O)N[C@@H](C)c1cc(-c2cccs2)nc2ccccc12 [Example 2, (S)-5-(2-(dimethylamino)ethoxy)-2-methyl-N-(1-(2-(thiophen-2-yl)quinolin-4-yl)ethyl)benzamide] | 11.4 ± 0.79 | 1 to 5
17 | Cc1ccc(C2=CCN(C)CC2)cc1C(=O)N[C@H](C)c1cc(-c2cnn(C)c2)nc2ccccc12 [Example 86, (R)-2-methyl-5-(1-methyl-1,2,3,6-tetrahydropyridin-4-yl)-N-(1-(2-(1-methyl-1H-pyrazol-4-yl)quinolin-4-yl)ethyl)benzamide] | 92.7 ± 4.59 | 1 to 5
18 | Cc1ccc(OCCN(C)C)cc1C(=O)N[C@H](C)c1cc(-c2ccc(CN)s2)nc2ccccc12 [Example 55, (R)—N-(1-(2-(5-(aminomethyl)thiophen-2-yl)quinolin-4-yl)-ethyl)-5-(2-(dimethylamino)ethoxy)-2-methylbenzamide] | 34.6 ± 8.18 | < 0.5
19 | Cc1ccc(OCCN(C)C)cc1C(=O)N[C@H](C)c1cc(-c2ccc3c(c2)OC(F)(F)O3)nc2ccccc12 [Example 56, (R)—N-(1-(2-(2,2-difluorobenzo[d][1,3]dioxol-5-yl)quinolin-4-yl)ethyl)-5-(2-(dimethylamino)ethoxy)-2-methylbenzamid] | 15.2 ± 7.09 | < 0.5
20 | Cc1ccc(OCCN(C)C)cc1C(=O)N[C@H](C)c1cc(-c2cncn2C)nc2ccccc12 [Example 66, (R)-5-(2-(dimethylamino)ethoxy)-2-methyl-N-(1-(2-(1-methyl-1H-imidazol-5-yl)quinolin-4-yl)ethyl)benzamide] | 79.5 ± 8.62 | < 0.5
21 | Cc1ccc(OCCN(C)C)cc1C(=O)N[C@H](C)c1cc(N2CCOCC2)nc2ccccc12 [Example 45, (R)-5-(2-(dimethylamino)ethoxy)-2-methyl-N-(1-(2-morpholinoquinoline-4-yl)ethyl)benzamide] | 166 ± 33.2 | 0.5 to 1
22 | Cc1ccc(OCCN(C)C)cc1C(=O)N[C@H](C)c1cc(-c2cnn(C(C)(C)C)c2)nc2ccccc12 [Example 65, (R)—N-(1-(2-(1-(tert-butyl)-1H-pyrazol-4-yl)quinolin-4-yl)ethyl)-5-(2-(dimethyl-amino)ethoxy)-2-methylbenzamide] | 19.1 ± 2.75 | < 0.5
23 | Cc1ccc(N2CCC(N(C)C)CC2)cc1C(=O)N[C@H](C)c1cc(-c2cnn(C)c2)nc2ccccc12 [Example 87, (R)-5-(4-(dimethylamino)piperidin-1-yl)-2-methyl-N-(1-(2-(1-methyl-1H-pyrazol-4-yl)quinolin-4-yl)ethyl)benzamide] | 73.8 ± 5.88 | 1 to 5
24 | Cc1ccc(OCCN(C)C)cc1C(=O)N[C@H](C)c1cc(-c2cnn(CCC#N)c2)nc2ccccc12 [Example 59, (R)—N-(1-(2-(1-(2-cyanoethyl)-1H-pyrazol-4-yl)quinolin-4-yl)ethyl)-5-(2-(dimethylamino)ethoxy)-2-methylbenzamide] | 101 ± 15.2 | > 5
25 | Cc1ccc(OCCN(C)C)cc1C(=O)N[C@@H](C)c1cc(-c2cnn(C3CC3)c2)nc2ccccc12 [Example 20, (S)—N-(1-(2-(1-cyclopropyl-1H-pyrazol-4-yl)quinolin-4-yl)ethyl)-5-(2-(dimethylamino)ethoxy)-2-methylbenzamide] | 59.6 ± 8.56 | < 0.5
26 | Cc1ccc(N(C)C2CN(C)C2)cc1C(=O)N[C@H](C)c1cc(-c2cnn(C)c2)nc2ccccc12 [Example 88, (R)-2-methyl-5-(methyl(1-methylazetidin-3-yl)amino)-N-(1-(2-(1-methyl-1H-pyrazol-4-yl)quinolin-4-yl)ethyl)benzamide] | 97.4 ± 6.51 | 1 to 5
